# From patent US12575572B2, “Systems, methods, and apparatuses for disinfection and decontamination” (priority 2020, dated 2026)
# System: Phi6 bacteriophage (surrogate for Coronavirus and Ebola)
smiles,measurement,value
"[O][Cl+][O-] [ClO2, chlorine dioxide]",virions recovered from treated coupons,no virions were recovered
